Assays:
[1] = tested on: invasion of colorectal cancer cells; assay: In vivo relative invation (invasion; EV and KITENIN controls, no method described); conditions: relative to EV (=1); KIT = KITENIN
KAI1 promoter = KAI1 promoter luciferase reporter assay in transfected Caco2 cells; format: cell-based, human; conditions: 1 μM compound, 16 hours, transfected Caco2 cells, luciferase activity relative to DMSO control (=1); for fold induction at 1 µM: Homo sapiens, Caco-2, 16 h, read-out: Relative KAI promoter activity

Row | Compound | In vivo relative invation [1] | fold induction at 1 µM (KAI1 promoter) | Relative KAI promoter activity (KAI1 promoter)
1 | O=C(CNC(=O)c1ccccc1OC1CCN(C(=O)c2ccccc2Cl)CC1)c1ccccc1 [Example 156, 2-((1-(2-chlorobenzoyl)piperidin-4-yl)oxy)-N-(2-oxo-2-phenylethyl)benzamide] | 1.158 | 0.99 | 
2 | O=C(CNC(=O)c1ccccc1C(F)(F)F)c1ccccc1 [Example 30, N-(2-oxo-2-phenylethyl)-2-(trifluoromethyl)benzamide] | 0.7631 | 1.41 | 
3 | O=C(CNC(=O)c1ccc(CN2CCN(c3ncccn3)CC2)cc1)c1ccccc1 [Example 258, N-(2-oxo-2-phenylethyl)-4-((4-(pyrimidin-2-yl)piperazin-1-yl)methyl)benzamide] | 1.223 | 2.31 | 
4 | O=C(CNC(=O)c1ccc(F)c(F)c1)c1ccc(Cl)cc1 [Example 78, N-(2-(4-chlorophenyl)-2-oxoethyl)-3,4ifluorobenzamide] | 1.17 | 0.9 | 
5 | COCC(=O)NCC(=O)c1ccc(N(C)C)cc1 [Example 106, N-(2-(4-(dimethylamino)phenyl)-2-oxoethyl)-2-methoxyacetamide] | 1.171 | 2.44 | 
6 | C/C=C/C(=O)NCC(=O)c1ccccc1 [Example 8, (E)-N-(2-oxo-2-phenylethyl)but-2-enamide] | 1.077 | 1.15 | 
7 | C=CC(=O)NCC(=O)c1ccc(Cl)cc1 [Example 50, N-(2-(4-chlorophenyl)-2-oxoethyl)acrylamide] | 1.089 | 0.94 | 
8 | CCN(Cc1ccc(C(=O)NCC(=O)c2ccccc2)cc1)c1ccccc1 [Example 263, 4-((ethyl(phenyl)amino)methyl)-N-(2-oxo-2-phenylethyl)benzamide] | 1.301 | 2.23 | 
9 | C#CN(C)Cc1cccc(C(=O)NCC(=O)c2ccccc2)c1 [Example 251, 3-((ethynyl(methyl)amino)methyl)-N-(2-oxo-2-phenylethyl)benzamide] | 1.197 | 2.37 | 
10 | O=C(COc1ccccc1C(=O)NCC(=O)c1ccccc1)Nc1cccc(O)c1 [Example 223, 2-(2-((3-hydroxyphenyl)amino)-2-oxoethoxy)-N-(2-oxo-2-phenylethyl)benzamide] | 1.195 | 1.1 | 
11 | O=C(COc1ccccc1C(=O)NCC(=O)c1ccccc1)Nc1cccnc1 [Example 208, 2-(2-oxo-2-(pyridin-3-ylamino)ethoxy)-N-(2-oxo-2-phenylethyl)benzamide] | 1.184 | 1.14 | 
12 | COc1cccc(C(=O)CNC(=O)c2cccc(CN3CCN(c4ccccc4OC)CC3)c2)c1 [Example 282, N-(2-(3-methoxyphenyl)-2-oxoethyl)-3-((4-(2-methoxyphenyl)piperazin-1-yl)methyl)benzamide] | 1.214 | 1.47 | 
13 | CC(Oc1ccccc1)C(=O)NCC(=O)c1ccc(N(C)C)cc1 (centres unmarked) [Example 89, N-(2-(4-(dimethylamino)phenyl)-2-oxoethyl)-2-phenoxypropanamide] | 1.074 | 1.27 | 
14 | Cc1ccccc1C(=O)NCC(=O)c1cccnc1 [Example 135, 2-methyl-N-(2-oxo-2-(pyridin-3-yl)ethyl)benzamide] | 1.485 | 1.3 | 
15 | CN(CCO)Cc1ccc(C(=O)NCC(=O)c2ccccc2)cc1 [Example 267, 4-(((2-hydroxyethyl) (methyl)amino)methyl)-N-(2-oxo-2-phenylethyl)benzamide] | 0.9046 | 3.56 | 
16 | O=C(COc1ccccc1C(=O)NCC(=O)c1ccccc1)Nc1ccc2c(c1)OCO2 [Example 217, 2-(2-(benzo [d] [1,3]dioxol-5-ylamino)-2-oxoethoxy)-N-(2-oxo-2-phenylethyl)benzamide] | 1.266 | 1.18 | 
17 | C/C=C/C(=O)NCC(=O)c1ccc(Cl)cc1 [Example 48, (E)-N-(2-(4-chlorophenyl)-2-oxoethyl)but-2-enamide] | 1.19 | 0.85 | 

Row | Compound | In vivo relative invation [1] | fold induction at 1 µM (KAI1 promoter) | Relative KAI promoter activity (KAI1 promoter)
18 | COCC(=O)NCC(=O)c1ccccc1 [Example 23, 2-methoxy-N-(2-oxo-2-phenylethyl) acetamide] | 1.104 | 1 | 
19 | COc1cccc(C(=O)CNC(=O)c2cccc(CN(C)C3CCCCC3)c2)c1 [Example 280, 3-((cyclohexyl(methyl)amino)methyl)-N-(2-(3-methoxyphenyl)-2-oxoethyl)benzamide] | 1.195 | 1.63 | 
20 | O=C(CNC(=O)c1ccccc1OC1CCN(S(=O)(=O)c2ccc(F)cc2)CC1)c1ccccc1 [Example 184, 2-((1-((4-fluorophenyl)sulfonyl)piperidin-4-yl)oxy)-N-(2-oxo-2-phenylethyl)benzamide] | 1.114 | 0.98 | 
21 | O=C(CNC(=O)c1ccccc1OC1CCN(C(=O)c2ccco2)CC1)c1ccccc1 [Example 155, 2-((1-(furan-2-carbonyl)piperidin-4-yl)oxy)-N-(2-oxo-2-phenylethyl)benzamide] | 1.151 | 0.99 | 
22 | O=C(CNC(=O)c1ccc(C(F)(F)F)cc1)c1ccccc1 [Example 32, N-(2-oxo-2-phenylethyl)-4-(trifluoromethyl)benzamide] | 1.383 | 1.02 | 
23 | CN(C)Cc1cccc(C(=O)NCC(=O)c2ccccc2)c1 [Example 231, 3-((dimethylamino)methyl)-N-(2-oxo-2-phenylethyl)benzamide] | 1.122 | 1.56 | 
24 | COc1ccc(S(=O)(=O)NCC(=O)c2ccc(Cl)cc2)cc1 [Example 71, N-(2-(4-chlorophenyl)-2-oxoethyl)-4-methoxybenzenesulfonamide] | 1.135 | 0.85 | 
25 | CN(C)c1ccc(C(=O)CNC(=O)CC(C)(C)C)cc1 [Example 102, N-(2-(4-(dimethylamino)phenyl)-2-oxoethyl)-3,3-dimethylbutanamide] | 1.121 | 2.53 | 
26 | O=C(CNC(=O)c1ccccc1OC(F)(F)F)c1ccc(Cl)cc1 [Example 84, N-(2-(4-chlorophenyl)-2-oxoethyl)-2-(trifluoromethoxy)benzamide] | 1.181 | 0.94 | 
27 | CC(C)Oc1cccc(NC(=O)COc2ccccc2C(=O)NCC(=O)c2ccccc2)c1 [Example 220, 2-(2-((3-isopropoxyphenyl)amino)-2-oxoethoxy)-N-(2-oxo-2-phenylethyl)benzamide] | 0.9324 | 1.15 | 
28 | COc1ccc(S(=O)(=O)NCC(=O)c2ccc(N3CCOCC3)cc2)cc1 [Example 150, 4-methoxy-N-(2-(4-morpholinophenyl)-2-oxoethyl)benzenesulfonamide] | 1.071 | 1.14 | 
29 | O=C(CNC(=O)c1ccccc1OC1CCN(S(=O)(=O)c2cccc([S](=O)=O)c2)CC1)c1ccccc1 [Example 175, 2-((1-((3-(dioxo-15-sulfanyl)phenyl)sulfonyl)piperidin-4-yl)oxy)-N-(2-oxo-2-phenylethyl)benzamide] | 1.149 |  | 0.97
30 | O=C(COc1ccccc1C(=O)NCC(=O)c1ccccc1)NCc1ccccc1 [Example 204, 2-(2-(benzylamino)-2-oxoethoxy)-N-(2-oxo-2-phenylethyl)benzamide] | 1.095 | 1.3 | 
31 | Cc1ccccc1C(=O)N1CCC(Oc2ccccc2C(=O)NCC(=O)c2ccccc2)CC1 [Example 161, 2-((1-(2-methylbenzoyl)piperidin-4-yl)oxy)-N-(2-oxo-2-phenylethyl)benzamide] | 1.121 | 0.95 | 
32 | CN(C)Cc1ccccc1C(=O)NCC(=O)c1ccccc1 [Example 296, 2-((dimethylamino)methyl)-N-(2-oxo-2-phenylethyl)benzamide] | 1.026 | 1.53 | 
33 | O=C(CNC(=O)c1cc(C(F)(F)F)cc(C(F)(F)F)c1)c1ccccc1 [Example 29, N-(2-oxo-2-phenylethyl)-3,5-bis(trifluoromethyl)benzamide] | 1.026 | 0.9 | 
34 | O=C(CNC(=O)c1ccccc1OC1CCN(C(=O)c2ccccc2F)CC1)c1ccccc1 [Example 153, 2-((1-(2-fluorobenzoyl)piperidin-4-yl)oxy)-N-(2-oxo-2-phenylethyl)benzamide] | 1.095 | 1.05 | 
